Where two headings read alike, the source gives them in different places.
System: Italian ryegrass (Lolium multiflorum)
Assay: Test B pre-/postemergence plant response
Format: in vivo
Conditions: for pest or weed control at 31 g/ha / pest or weed control at 62 g/ha / pest or weed control at 125 g/ha / pest or weed control at 250 g/ha: Lolium multiflorum, read-out: Plant response rating, Ryegrass, Italian
In short: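 Visual scoring from 0 (no effect) to 100 (complete control) against untreated controls was done 13 to 15 days after greenhouse treatment. Chemicals were formulated in a surfactant-containing non-phytotoxic solvent and applied to soil preemergence or to 1- to 4-leaf (2-18 cm) plants postemergence.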

[1] = 8 g ai/ha, postemergence, 0-100 scale
[2] = Postemergence, 16 g ai/ha, scale 0 to 100
[3] = Postemergence, 31 g ai/ha, scale 0 to 100, 0 no effect, 100 complete control
[4] = Postemergence, 62 g ai/ha, scale 0 to 100, 0 no effect, 100 complete control
[5] = Preemergence, 16 g ai/ha, scale 0 to 100 (0 no effect, 100 complete control)
[6] = Preemergence, 31 g ai/ha, scale 0 to 100 (0 no effect, 100 complete control)
[7] = Preemergence, 62 g ai/ha, scale 0 to 100
[8] = Preemergence, 8 g ai/ha, scale 0 to 100
[9] = Preemergence, 31 g ai/ha, 0 to 100 scale, 0 no effect, 100 complete control
[10] = Preemergence, 125 g ai/ha, scale 0 to 100
[11] = Preemergence, 250 g ai/ha, scale 0 to 100
[12] = 16 g ai/ha, postemergence, 0-100 scale
[13] = Postemergence, 31 g ai/ha, scale 0 to 100
[14] = Preemergence, 62 g ai/ha, 0 to 100 scale, 0 no effect, 100 complete control
[15] = Preemergence, 16 g ai/ha, scale 0 to 100
[16] = Postemergence, 62 g ai/ha, scale 0 to 100
[17] = Postemergence, 125 g ai/ha, scale 0 to 100
[18] = Postemergence, 250 g ai/ha, scale 0 to 100
[19] = post-emergence, Postemergence, 31 g ai/ha, scale 0 to 100
[20] = post-emergence, Postemergence, 62 g ai/ha, scale 0 to 100, 0 no effect, 100 complete control
[21] = pre-emergence, Preemergence, 31 g ai/ha, scale 0 to 100 (0 no effect, 100 complete control)
[22] = pre-emergence, Preemergence, 62 g ai/ha, 0 to 100 scale, 0 no effect, 100 complete control
[23] = Preemergence, 8 g ai/ha, scale 0 to 100 (0 no effect, 100 complete control)

Molecule | Ryegrass, Italian plant response rating [1] | Plant response rating, Ryegrass, Italian [3] | Plant response rating, Ryegrass, Italian [4] | Plant response rating, Ryegrass, Italian [7] | Ryegrass, Italian plant response rating [8] | Plant response rating, Ryegrass, Italian [9] | Ryegrass, Italian plant response rating [12] | Ryegrass, Italian plant response rating [15] | other results
CCc1cc(-c2ccc(Cl)cc2)nn1-c1c(OC(=O)C(C)(C)C)cnn(C)c1=O [Compound 40] | 80 | 100 | 100 | 100 | 80 | – | – | – | Plant response rating, Ryegrass, Italian [2]: 100; Plant response rating, Ryegrass, Italian [5]: 95; Plant response rating, Ryegrass, Italian [6]: 95
Cc1cc(-c2ccc(C(F)(F)F)cc2)nn1-c1c(OC(=O)C(C)(C)C)cnn(C)c1=O [Compound 2] | – | – | – | 100 | – | 75 | – | – | Plant response rating, Ryegrass, Italian [10]: 100; Plant response rating, Ryegrass, Italian [11]: 100
Cc1cc(-c2ccc(Cl)cc2)nn1-c1c(OC(=S)N(C)C)cnn(C)c1=O [Compound 69] | 10 | – | 100 | – | 0 | – | 55 | 20 | Plant response rating, Ryegrass, Italian [13]: 98; Plant response rating, Ryegrass, Italian [6]: 60; Plant response rating, Ryegrass, Italian [14]: 100
COCc1cc(-c2ccc(Br)cc2)nn1-c1c(O)cnn(C)c1=O [Compound 68] | 0 | – | 95 | – | – | – | 10 | – | Plant response rating, Ryegrass, Italian [13]: 80
CCc1cc(-c2ccc(Cl)cc2)nn1-c1c(OS(C)(=O)=O)cnn(C)c1=O [Compound 39] | 30 | 95 | 100 | 100 | 90 | 100 | – | – | Plant response rating, Ryegrass, Italian [2]: 90; Plant response rating, Ryegrass, Italian [5]: 95
4-[3-(4-chlorophenyl)-5-methyl-1H-pyrazol-3-yl]-5-hydroxy-2-methyl-3(2H)-pyridazinone [Compound 3] | – | 95 | – | 100 | – | 98 | – | – | Plant response rating, Ryegrass, Italian [16]: 100; Plant response rating, Ryegrass, Italian [17]: 100; Plant response rating, Ryegrass, Italian [18]: 100; Plant response rating, Ryegrass, Italian [10]: 100; Plant response rating, Ryegrass, Italian [11]: 100
Cc1cc(-c2ccc(Br)cc2)nn1-c1c(O)cn[nH]c1=O [Compound 78, 4-[3-(4-bromophenyl)-5-methyl-1H-pyrazol-1-yl]-5-hydroxy-3(2H)-pyridazinone] | 90 | – | – | – | – | – | 98 | 98 | pest or weed control at 31 g/ha [19]: 100%; pest or weed control at 62 g/ha [20]: 100%; pest or weed control at 31 g/ha [21]: 100%; pest or weed control at 62 g/ha [22]: 100%; Ryegrass, Italian plant response rating [23]: 98
Cn1ncc(O)c(-c2nn(-c3ccc(Cl)cc3)cc2Br)c1=O [Compound 31] | – | – | – | 100 | 50 | 90 | – | – | Plant response rating, Ryegrass, Italian [5]: 90
Cc1cc(-c2ccc(Cl)cc2)nn1-c1c(OS(C)(=O)=O)cnn(C)c1=O [Compound 36] | 10 | 65 | 95 | 100 | 20 | 100 | – | – | Plant response rating, Ryegrass, Italian [2]: 30; Plant response rating, Ryegrass, Italian [5]: 98
Cc1nn(C)c(=O)c(-n2nc(-c3ccc(C(F)(F)F)cc3)cc2C)c1O [Compound 75, 5-hydroxy-2,6-dimethyl-4-[5-methyl-3-[4-(trifluoromethyl)phenyl]-1H-pyrazol-1-yl]-3(2H)-pyridazinone] | 30 | – | – | – | 0 | – | 50 | 30 | pest or weed control at 31 g/ha [19]: 95%; pest or weed control at 62 g/ha [20]: 98%; pest or weed control at 31 g/ha [21]: 98%; pest or weed control at 62 g/ha [22]: 98%
Cc1nn(C)c(=O)c(-n2nc(-c3ccc(Br)cc3)cc2C)c1O [Compound 81] | 85 | – | 100 | – | – | – | 90 | 100 | Plant response rating, Ryegrass, Italian [13]: 100; Ryegrass, Italian plant response rating [23]: 70; Plant response rating, Ryegrass, Italian [6]: 100; Plant response rating, Ryegrass, Italian [14]: 100
Cc1cc(-c2ccc(C(F)(F)F)cc2)nn1-c1c(O)cnn(C)c1=O [Compound 1, 5-hydroxy-2-methyl-4-[5-methyl-3-[4-(trifluoromethyl)phenyl]-1H-pyrazol-1-yl]-3(2H)-pyridazinone] | – | – | – | – | – | – | – | – | pest or weed control at 31 g/ha (post-emergence, Postemergence, 31 g ai/ha, scale 0 to 100, 0 no effect, 100 complete control): 95%; pest or weed control at 62 g/ha (post-emergence, Postemergence, 62 g ai/ha, scale 0 to 100): 100%; pest or weed control at 125 g/ha (post-emergence, Postemergence, 125 g ai/ha, scale 0 to 100): 100%; pest or weed control at 250 g/ha (post-emergence, Postemergence, 250 g ai/ha, scale 0 to 100): 100%; pest or weed control at 31 g/ha (pre-emergence, Preemergence, 31 g ai/ha, 0 to 100 scale, 0 no effect, 100 complete control): 80%; pest or weed control at 62 g/ha (pre-emergence, Preemergence, 62 g ai/ha, scale 0 to 100): 100%; pest or weed control at 125 g/ha (pre-emergence, Preemergence, 125 g ai/ha, scale 0 to 100): 100%; pest or weed control at 250 g/ha (pre-emergence, Preemergence, 250 g ai/ha, scale 0 to 100): 100%
Cc1cc(-c2ccc(Br)cc2)nn1-c1c(O)cnn(C)c1=O [Compound 4] | – | 100 | – | 100 | – | 100 | – | – | Plant response rating, Ryegrass, Italian [16]: 100; Plant response rating, Ryegrass, Italian [17]: 100; Plant response rating, Ryegrass, Italian [18]: 100; Plant response rating, Ryegrass, Italian [10]: 100; Plant response rating, Ryegrass, Italian [11]: 100
Cc1cc(-c2ccc(Br)cc2)nn1-c1c(OC(=O)C2CC2)cnn(C(=O)C2CC2)c1=O [Compound 80, 5-[3-(4-bromophenyl)-5-methyl-1H-pyrazol-1-yl]-1-(cyclopropylcarbonyl)-1,6-dihydro-6-oxo-4-pyridazinyl cyclopropanecarboxylate] | 80 | – | – | – | – | – | 98 | 40 | pest or weed control at 31 g/ha [19]: 100%; pest or weed control at 62 g/ha [20]: 100%; pest or weed control at 31 g/ha [21]: 40%; pest or weed control at 62 g/ha [22]: 100%; Ryegrass, Italian plant response rating [23]: 0
CCc1cc(-c2ccc(Br)cc2)nn1-c1c(O)cnn(C)c1=O [Compound 61] | 100 | – | 100 | – | 85 | – | 100 | 100 | Plant response rating, Ryegrass, Italian [13]: 100; Plant response rating, Ryegrass, Italian [6]: 100; Plant response rating, Ryegrass, Italian [14]: 100
CCc1cc(-c2ccc(C(F)(F)F)cc2)nn1-c1c(O)cnn(CC)c1=O [Compound 67] | 100 | – | 100 | – | 100 | – | 100 | 100 | Plant response rating, Ryegrass, Italian [13]: 100; Plant response rating, Ryegrass, Italian [6]: 100; Plant response rating, Ryegrass, Italian [14]: 100
Cc1cc(-c2ccc(Br)cc2)nn1-c1c(OC(=O)OC(C)C)cnn(C)c1=O [Compound 6] | – | 100 | – | 100 | – | 90 | – | – | Plant response rating, Ryegrass, Italian [16]: 100; Plant response rating, Ryegrass, Italian [17]: 100; Plant response rating, Ryegrass, Italian [18]: 100; Plant response rating, Ryegrass, Italian [10]: 100; Plant response rating, Ryegrass, Italian [11]: 100

From patent US20100267561A1, “HERBICIDAL PYRIDAZINONE DERIVATIVES” (priority 2007, published 2010)
